In ChEMBL document CHEMBL1130446, “The synthesis of CD - ring modified 1,25-dihydroxy vitamin D analogues: Six-membered D-ring analogues II” (Bioorg Med Chem Lett, 1997):
Each block holds one compound with its values, some of them ahead of it.

Columns and labels:
HL-60 = test: Compound was tested in vitro for its biological evaluation against HL-60 cell line; format: functional, Homo sapiens
MCF7 = test: Compound was tested in vitro for its biological evaluation against MCF-7 cell line; format: functional, Homo sapiens
Keratinocyte = test: Compound was tested in vitro for its biological evaluation against keratinocytes cell line; format: functional
[1] = biological target: T1, Vitamin D3 receptor (Sus scrofa domesticus) (UniProt Q7M3G7); test: Compound was tested for its relative affinity to pig intestinal mucosa Vitamin D3 receptor using [3H]- 1 alpha,25(OH)2 D3 radioligand compared to 1 alpha 25-(OH)2D3; format: tissue-based
T1 sequence (whole entry): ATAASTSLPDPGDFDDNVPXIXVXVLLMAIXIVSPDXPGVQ

[2] = Ratio of biological evaluation of compound in keratinocytes and calcium serum was determined. value expressed as relative toxicity.; format: cell-based
Mus musculus = test: In vivo effect in vitamin D-replete normal NMRI mice by measuring calcium levels in serum; format: functional
[3] = Ratio of biological evaluation of compound in keratinocytes and calcium sreum was determined. value expressed as relative toxicity.; format: cell-based
MG-63 = test: Compound was tested in vitro for its biological evaluation against MG-63 cell line; format: functional, Homo sapiens

- Relative affinity [1]: 60
Structure (SMILES): C=C1C(=CC=CC2CCCC([C@H](C)CC#CC(C)(C)O)C2(C)C)C[C@@H](O)C[C@@H]1O (stereo not given in full)
- Activity (HL-60): 85
- Activity (MCF7): 100
- Activity (Keratinocyte): 200
- Ratio [2]: 2000
- Activity (Mus musculus): <0.1

- Relative affinity [1]: 0.7
Structure (SMILES): C=C1C(=CC=CC2CCCC([C@@H](C)CC#CC(C)(C)O)C2(C)C)C[C@@H](O)C[C@@H]1O (stereo not given in full)
- Activity (HL-60): 10
- Activity (MCF7): 4
- Activity (Keratinocyte): 7
- Ratio [3]: 28
- Activity (Mus musculus): 0.25
- Activity (MG-63): 20

- Relative affinity [1]: 70
Structure (SMILES): C=C1/C(=C\C=C2/CCC[C@]3(C)C([C@H](C)CC#CC(C)(C)O)=CC[C@@H]23)C[C@@H](O)C[C@@H]1O [ILX23-7553]
- Activity (HL-60): 1000
- Activity (MCF7): 4250
- Activity (Keratinocyte): 8000
- Ratio [3]: 1300
- Activity (Mus musculus): 10
- Activity (MG-63): 1000
